Consider one compound from patent US6596712B2, “Treatment of carcinomas using squalamine in combination with other anti-cancer agents or modalities” (Genaera Corporation, priority 1996, dated 2003).

Data set [1] addresses T1, rabbit NHE3 (Oryctolagus cuniculus, UniProt P26432).
T1 construct: expressed in transfected cells
Description: NHE activity, rabbit NHE3. It counts as cell-based. The note with it: for decrease of Vmax of rabbit NHE3: 1 hour pretreatment.

For data set [2], the target named is T2, rabbit NHE1 (Oryctolagus cuniculus, UniProt P23791).
T2 construct: expressed in transfected cells
T2 sequence (P23791 whole entry): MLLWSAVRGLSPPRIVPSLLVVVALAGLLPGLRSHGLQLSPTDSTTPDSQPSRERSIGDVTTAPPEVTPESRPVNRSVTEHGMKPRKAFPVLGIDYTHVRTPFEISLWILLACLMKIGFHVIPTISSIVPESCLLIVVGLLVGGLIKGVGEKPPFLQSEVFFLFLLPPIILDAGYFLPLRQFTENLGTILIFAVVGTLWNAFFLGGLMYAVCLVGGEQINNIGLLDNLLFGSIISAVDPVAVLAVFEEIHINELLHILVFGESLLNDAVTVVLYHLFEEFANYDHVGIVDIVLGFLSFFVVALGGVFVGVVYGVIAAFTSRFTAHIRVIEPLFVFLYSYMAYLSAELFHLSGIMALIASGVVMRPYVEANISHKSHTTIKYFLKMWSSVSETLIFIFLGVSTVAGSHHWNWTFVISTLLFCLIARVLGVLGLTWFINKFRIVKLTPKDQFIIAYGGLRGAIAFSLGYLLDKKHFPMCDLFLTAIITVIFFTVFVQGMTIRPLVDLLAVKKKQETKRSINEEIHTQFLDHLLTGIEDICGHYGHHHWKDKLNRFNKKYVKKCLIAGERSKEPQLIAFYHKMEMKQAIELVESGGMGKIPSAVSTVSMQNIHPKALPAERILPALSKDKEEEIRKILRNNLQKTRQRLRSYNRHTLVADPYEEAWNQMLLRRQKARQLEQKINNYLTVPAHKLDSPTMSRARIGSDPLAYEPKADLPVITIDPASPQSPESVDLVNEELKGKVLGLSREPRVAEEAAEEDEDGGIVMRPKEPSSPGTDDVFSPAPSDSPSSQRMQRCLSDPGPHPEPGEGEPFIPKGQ
Description: NHE activity, rabbit NHE1. The data set is classed as cell-based. The note with it: similar tests.

In data set [3] the target is T3, rabbit NHE3 with 76 C-terminal amino acids removed (Oryctolagus cuniculus, UniProt P26432).
T3 construct: expressed in transfected cells
T3 sequence (P26432 30-756): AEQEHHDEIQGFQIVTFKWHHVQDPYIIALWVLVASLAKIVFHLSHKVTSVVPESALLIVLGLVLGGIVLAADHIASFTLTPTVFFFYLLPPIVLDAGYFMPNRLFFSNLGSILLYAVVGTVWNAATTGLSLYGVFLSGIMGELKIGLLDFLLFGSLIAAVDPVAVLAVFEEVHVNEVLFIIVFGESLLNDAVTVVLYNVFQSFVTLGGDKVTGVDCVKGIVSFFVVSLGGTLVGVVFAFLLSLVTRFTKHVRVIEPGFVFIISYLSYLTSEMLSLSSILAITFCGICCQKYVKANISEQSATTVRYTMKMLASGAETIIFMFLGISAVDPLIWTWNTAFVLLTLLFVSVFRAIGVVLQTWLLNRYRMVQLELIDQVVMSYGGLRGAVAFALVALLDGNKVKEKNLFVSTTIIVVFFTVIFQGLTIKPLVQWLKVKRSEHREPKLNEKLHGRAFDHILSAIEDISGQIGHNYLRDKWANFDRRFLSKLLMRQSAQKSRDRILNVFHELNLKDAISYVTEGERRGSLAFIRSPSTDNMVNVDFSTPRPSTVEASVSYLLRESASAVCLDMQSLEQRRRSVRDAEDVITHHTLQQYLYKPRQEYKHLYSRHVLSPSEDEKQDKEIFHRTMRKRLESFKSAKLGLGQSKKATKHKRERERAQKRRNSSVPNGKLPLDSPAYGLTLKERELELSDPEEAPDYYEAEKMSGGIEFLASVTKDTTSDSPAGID
Description: Rabbit NHE3 with the 76 C-terminal amino acids removed. The data set is classed as cell-based. The source says:
This NHE3 inhibiting activity of squalamine has been mapped to the 76 C-terminal amino acids on the NHE3 molecule. […] Thus, the 76 C-terminal amino acids of NHE3 are the site of inhibition by squalamine.

Data set [4] concerns transfected PS 120 fibroblast cells. Briefly: LDH leakage from transfected cells. The settings on record: during NHE inhibiting effect. The data set is classed as cell-based. As to the method: In the transfected cells used in this test, it took at least 30 minutes before the NHE3 inhibition effect induced by squalamine was observed.
Data set [5] relates to human brain capillary endothelial cells. Description: Growth factor stimulated growth of human brain capillary endothelial cells. The data set is classed as cell-based. From the text:
Thus, as the tumor puts out a variety of different growth factors, squalamine has an inhibitory effect on several.

Data set [6] is described as follows: Squalamine toxicity test in rats. The data set is classed as in vivo. The settings on record: 20 mg/kg/day i.p. for more than 30 days; maintained up to 200 days. As to the method: A squalamine toxicity test was performed in another animal model. Conventional cytotoxic chemical compounds are quite toxic. […] For this reason, it is administered only one time to a patient. The use of BCNU is described on pages 304 and 305 of Calabresi in Medical Oncology, supra. In order to test the toxicity of squalamine, a group of rats was given a daily squalamine dose of 20 mg/kg/day (i.p.) for more than 30 days and maintained for up to 200 days following dosing.

The test system of data set [7] is 9L gliosarcoma tumors (9L glioma). Briefly: 9L glioma flank study. It counts as in vivo, Fisher 344 rats. The note with it: Day 25 or 26 after implantation, treatment from Day 5 per Table 4. As to the method: Four groups of rats (twenty total Fisher 344 rats, 200 g) were given s.q. transplants of 1 mm3 9L gliosarcoma tumors (9L glioma) on Day 0. The tumors were implanted in the rat flanks to avoid complications relating to adequate brain levels of squalamine. Randomization and treatment began on Day 5 according to the following scheme:
On Day 25 or 26 after tumor implantation, the tumor size was measured directly. The tumor size (i.e., its volume “V”) was estimated based on volumetric calculations determined from the measured length (“L”), width (“W”), and height (“H”) of the tumor (Vtumor spheroid˜0.5 ×L×W×H). The tumor volumes shown in Table 5 represent the mean tumor volumes for each treatment group for those animals that survived to the end of the experiment.

Data set [8] deals with Calu-6 human lung adenocarcinoma line. Description: Nude mouse xenograft model of lung cancer with cisplatin, Calu-6. It counts as in vivo. The settings on record: started on day 4 or 5, daily i.p. The source says: Studies in a nude mouse xenograft model of lung cancer have been carried out using several human lung cancer lines which differ in their growth rate. […] The experimental lung cancer model design involves subcutaneous injection of 5×10^6 tumor cells followed by a single injection of the chemotherapeutic drug on day 3 or 4. […] Groups of mice receiving squalamine alone started receiving the aminosterol on the same day as aminosterol treatment in the combination chemotherapy groups. Tumor volumes were then determined at termination of the experiment and compared.

Data set [9] concerns murine Lewis lung adenocarcinoma. Briefly: Lung metastases of subcutaneous Lewis lung carcinoma. The data set is classed as in vivo, C57BL/6 mice. The settings on record: day 20; squalamine 20 mg/kg/day s.c.; cyclophosphamide 125 mg/kg i.p. days 7, 9, 11; cisplatin 10 mg/kg i.p. day 7. As to the method: The murine Lewis lung adenocarcinoma was implanted subcutaneously in the hind-leg of male C57BL/6 mice and allowed to grow for one week. Groups of mice were then left untreated or treated with either squalamine (20 mg/kg/day, s.c.), cyclophosphamide (125 mg/kg, i.p. on days 7, 9 and 11), cisplatin (10 mg/kg, i.p. on day 7), the combination of squalamine and cyclophosphamide, or the combination of squalamine and cisplatin. On day 20, the animals were sacrificed, and the mean number of lung metastases were determined for each group.

Data set [10] has as its system LNCaP cells. Description: LNCaP cell growth in vitro ([3H]-thymidine incorporation). It counts as cell-based, human. As to the method:
The anti-proliferative effect of squalamine was evaluated in tissue culture by both crystal violet staining and [^3H]-thymidine incorporation, on the LNCaP/C4-2 human prostate cancer progression model. Developed by applicants' laboratory, this lineage-derived cell line recapitulates the progression of human neoplastic prostate disease from an androgen-dependent and minimally metastatic condition (LNCaP cells) to an androgen-independent (defined as being able to proliferate in castrate hosts) and highly aggressive state (C4-2 subline).
In vitro experiments were also conducted with the LNCAP cell line in which cell proliferation as judged by [3H]-thymidine uptake was determined. LNCaP cells were maintained as previously described (cf. J. T. Hsieh et al., Cancer Research 53, 2852-2857 (1993)). Cells were exposed to 20 ng/mL vascular endothelial growth factor (VEGF), 20 μg/mL squalamine or a combination of VEGF and squalamine. […] As a consequence, the mechanism underlying the effectiveness of squalamine treatment of the LNCaP tumor in vivo may under certain conditions also involve direct inhibition of tumor cell growth and/or induction of tumor cell death.
In general terms: Incorporation of labelled thymidine or its analogues reports DNA synthesis.

Data set [11] deals with Syngeneic mammary carcinoma MCA-4 tumor cells. Briefly: MCA-4 mammary carcinoma tumor growth delay with radiation. The data set is classed as in vivo, C3Hf/Kam male mice. As to the method:
Syngeneic mammary carcinoma MCA-4 tumor cells (5×10^5) were injected intramuscularly into the right legs of C3Hf/Kam male mice (4 months of age). When the tumors reached 6 mm in diameter, the mice were randomly assigned to receive: (a) no treatment, (b) squalamine alone (20 mg/kg/day b.i.d. for 11-14 days), (c) 15 Gy of gamma irradiation, or (d) squalamine plus 15 Gy of gamma rays. Tumor growth was followed until tumors reached at least 12 mm in diameter. The effect of squalamine on tumor radioresponse was determined by absolute and normalized tumor growth delays (AGD and NGD). AGD is defined as the time in days for tumors treated with radiation (or squalamine) to grow from 8 to 12 mm minus the time in days for untreated tumors to grow from 8-12 mm. NGD is defined as the time in days for tumors treated with both squalamine and radiation to grow from 8 to 12 mm minus the time in days for tumors treated with squalamine only to grow from 8 to 12 mm. An enhancement factor (EF) was determined as the ratio of NGD to AGD. The EF for squalamine with 15 Gy gamma rays calculated from the observed times for tumor growth (Table 8) is >1.5.

T1 sequence (P26432 30-832): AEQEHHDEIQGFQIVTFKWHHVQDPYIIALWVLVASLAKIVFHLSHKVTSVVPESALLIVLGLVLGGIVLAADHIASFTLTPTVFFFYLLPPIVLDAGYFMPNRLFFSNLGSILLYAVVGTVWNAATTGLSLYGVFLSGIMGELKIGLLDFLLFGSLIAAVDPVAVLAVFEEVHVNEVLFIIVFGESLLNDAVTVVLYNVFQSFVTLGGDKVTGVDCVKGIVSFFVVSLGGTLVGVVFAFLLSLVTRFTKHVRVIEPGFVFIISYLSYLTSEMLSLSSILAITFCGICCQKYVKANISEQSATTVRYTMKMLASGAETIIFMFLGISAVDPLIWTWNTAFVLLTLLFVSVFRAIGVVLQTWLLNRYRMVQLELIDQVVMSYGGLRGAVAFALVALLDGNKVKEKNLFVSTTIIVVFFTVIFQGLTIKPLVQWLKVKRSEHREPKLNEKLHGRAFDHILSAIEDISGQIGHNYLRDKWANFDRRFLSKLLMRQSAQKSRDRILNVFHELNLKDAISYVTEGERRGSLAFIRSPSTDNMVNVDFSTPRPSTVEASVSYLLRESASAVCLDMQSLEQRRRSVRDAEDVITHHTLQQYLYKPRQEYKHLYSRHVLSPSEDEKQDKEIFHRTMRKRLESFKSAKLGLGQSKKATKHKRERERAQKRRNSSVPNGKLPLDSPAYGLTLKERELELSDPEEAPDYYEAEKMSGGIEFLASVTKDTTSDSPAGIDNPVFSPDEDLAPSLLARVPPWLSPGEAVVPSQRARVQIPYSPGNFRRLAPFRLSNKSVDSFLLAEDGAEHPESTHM

With `CC(C)[C@@H](CC[C@@H](C)[C@H]1CC[C@H]2[C@@H]3[C@H](O)C[C@H]4C[C@@H](NCCCNCCCCN)CC[C@]4(C)[C@H]3CC[C@]12C)OS(=O)(=O)O` [Squalamine, squalamine], the “time dependence of effect on Vmax” value in data set [1] is reported as “maximum effect occurring at one hour exposure”. The “decrease of Vmax of rabbit NHE3” value in data set [1] (1 μg squalamine/ml) is recorded as 13%; in data set [1] (5 μg squalamine/ml) it was 47%; in [1] (7 μg squalamine/ml) it was 57%. Moreover, in data set [1] (after removing the cells from the medium), the “reversibility of effect on Vmax” value is reported as “fully reversible within three hours”. In addition, in data set [1] (similar tests), the “effect on rabbit NHE3” value was “inhibited”. Moreover, in data set [2], the “effect on rabbit NHE1” value is “not affected”. Further, the “effect on activity of NHE3 lacking the 76 C-terminal amino acids” value in data set [3] is “virtually no effect”. In addition, the “LDH leakage from the cell” value in data set [4] is recorded as “absence of lactase dehydrogenase (LDH) leakage”. Further, the “growth stimulation induced by b-FGF, PDGFbb, scatter factor, conditioned tumor media, human brain cyst fluid” value in data set [5] is recorded as “interfere with growth stimulation”. For the same compound, in data set [6], the “toxicity, health of animals” value is recorded as “remained healthy”. Besides, the “% Reduction (based on control volume)” value in [7] and in data set [7] (listed as squalamine) was 81.7% each time. The “Mean Tumor volume” value in data set [7] was 3,347 mm^3. Further, in data set [8], the “tumor growth, monotherapy” value is “minimal effects on tumor growth”. The “mean number of lung metastases” value in [9] is “reduced the number of metastases”. In addition, the “Percent of Control [3H]-Thymidine Uptake” value in [10] (20 ng/mL VEGF and/or 20 μg/mL squalamine, 24 hours, media containing serum) was determined as 75%. Moreover, the “effect on cell growth alone” value in data set [10] (media containing serum, 20 ng/mL VEGF or 20 μg/mL squalamine) is recorded as “minimal effects on cell growth”. Besides, the “growth of LNCaP cells, squalamine by itself” value in [10] (no exogenous VEGF) was “nominal effect”. Besides, the LNCaP proliferation entry in data set [10] (with addition of exogenous VEGF) is “inhibited”. The AGD in data set [11] (absolute tumor growth delay) amounted to 0 days. The “Time to Grow From 8 to 12 mm” value in [11] (squalamine 20 mg/kg/day b.i.d. for 11-14 days, 15 Gy gamma irradiation) turned out to be 6 days.
